Measurements taken from patent US20250186391A1, “ORAL COMPLEMENT FACTOR D INHIBITORS” (BioCryst Pharmaceuticals, Inc., priority 2019, published 2025).

Biological target: Factor D (Homo sapiens (Human), UniProt P00746)
Assay: Factor D esterolytic assay
Assay type: biochemical
Details: Z-Lys-SBzl substrate, 100 mM HEPES, 500 mM NaCl, pH 7.5, 10% DMSO; tested a minimum of three times; read-out: Measured Ki (IC50) Value for Compounds: IC50
Procedure, shortened: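 Buffer was 100 mM HEPES, 500 mM NaCl, pH 7.5 with 10% DMSO. Compound and Factor D were combined, then Z-Lys-SBzl (1.29 mM) was added either at once or following room-temperature incubation. Rates came from DTNB colour at 405 nm minus 690 nm over 600 s, with percent inhibition giving IC50 over at least three tests.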

Factor D, sequence (P00746 26-253): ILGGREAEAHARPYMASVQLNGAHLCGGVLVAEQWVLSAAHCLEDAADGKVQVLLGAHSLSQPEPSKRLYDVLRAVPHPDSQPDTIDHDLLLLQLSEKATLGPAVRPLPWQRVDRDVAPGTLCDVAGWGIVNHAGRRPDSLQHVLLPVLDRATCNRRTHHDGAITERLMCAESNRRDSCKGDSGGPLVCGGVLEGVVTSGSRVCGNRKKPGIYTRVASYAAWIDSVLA

| Structure (SMILES) | IC50 |
| --- | --- |
| NCc1cccc(-c2cc(C(=O)NCC3CC3)cc3cc(COc4ccccc4CC(=O)O)oc23)c1 [Compound 32d, 2-(2-((7-(3-(aminomethyl)phenyl)-5-((cyclopropylmethyl)carbamoyl)benzofuran-2-yl)methoxy)phenyl)acetic acid] | < 1000 nM |
| NCc1cccc(-c2ccc3occ(COc4ccc(F)cc4CC(=O)O)c3c2)c1F [Compound 45b, 2-(2-((5-(3-(aminomethyl)-2-fluorophenyl)benzofuran-3-yl)methoxy)-5-fluorophenyl)acetic acid] | < 1000 nM |
| NCc1cccc(-c2ccc3cnn(Cc4ccccc4CC(=O)O)c3c2)c1 [Compound 67e, 2-(2-((6-(3-(aminomethyl)phenyl)-1H-indazol-1-yl)methyl)phenyl)acetic acid] | < 1000 nM |
| COc1ccc(CC(=O)O)c(OCc2coc3ccc(-c4ccnc(CN)c4F)cc23)c1 [Compound 71d, 2-(2-((5-(2-(aminomethyl)-3-fluoropyridin-4-yl)benzofuran-3-yl)methoxy)-4-methoxyphenyl)acetic acid] | < 1000 nM |
| COc1ccc(CC(=O)O)c(OCc2c(C(=O)O)sc3ccc(-c4cccc(CN)c4)cc23)c1 [Compound 62c, 5-(3-(aminomethyl)phenyl)-3-((2-(carboxymethyl)-5-methoxyphenoxy)methyl)benzo[b]thiophene-2-carboxylic acid] | < 1000 nM |
| COc1ccc(CC(=O)O)c(OCc2nn(C(C)C)c3ccc(-c4cccc(CN)c4)cc23)c1 [Compound 213c, 2-(2-((5-(3-(aminomethyl)phenyl)-1-isopropyl-1H-indazol-3-yl)methoxy)-4-methoxyphenyl)acetic acid] | < 1000 nM |
| NCc1cccc(-c2cc(COc3ccccc3CC(=O)O)cc3cc(COc4ccccc4CC(=O)O)oc23)c1 [Compound 7f, 2,2′-((((7-(3-(aminomethyl)phenyl)benzofuran-2,5-diyl)bis(methylene))bis(oxy))bis(2,1-phenylene))diacetic acid] | < 1000 nM |
| NCc1cccc(-c2cc(OC[C@H]3CCCO3)c3occ(COc4ccccc4CC(=O)O)c3c2)c1 [Compound 76i, (R)-2-(2-((5-(3-(aminomethyl)phenyl)-7-((tetrahydrofuran-2-yl)methoxy)benzofuran-3-yl)methoxy)phenyl)acetic acid] | < 1000 nM |
| CCc1oc2ccc(-c3cccc(CN)c3F)cc2c1COc1cc(OC)ccc1CC(=O)O [Compound 227b, 2-(2-((5-(3-(aminomethyl)-2-fluorophenyl)-2-ethylbenzofuran-3-yl)methoxy)-4-methoxyphenyl)acetic acid] | < 1000 nM |
| CC(C)(C)OC(=O)Nc1cccc(CC(=O)O)c1OCc1coc2ccc(-c3cccc(CN)c3)cc12 [Compound 91a, 2-(2-((5-(3-(aminomethyl)phenyl)benzofuran-3-yl)methoxy)-3-((tert-butoxycarbonyl)amino)phenyl)acetic acid] | < 1000 nM |
| NCc1cccc(-c2cc(NC3CCCC3)c3occ(COc4ccccc4CC(=O)O)c3c2)c1 [Compound 188d, 2-(2-((5-(3-(aminomethyl)phenyl)-7-(cyclopentylamino)benzofuran-3-yl)methoxy)phenyl)acetic acid] | < 1000 nM |
| COc1ccc(CC(=O)O)c(OCc2c(C)oc3c(NCC4CC4)cc(-c4cccc(CN)c4)cc23)c1 [Compound 274c, 2-(2-((5-(3-(aminomethyl)phenyl)-7-((cyclopropylmethyl)amino)-2-methylbenzofuran-3-yl)methoxy)-4-methoxyphenyl)acetic acid] | < 1000 nM |
| COc1ccc(CC(=O)O)c(OCc2coc3ccc(-c4cccc(CN)c4F)cc23)c1 [Compound 6e, 2-(2-((5-(3-(aminomethyl)-2-fluorophenyl)benzofuran-3-yl)methoxy)-4-methoxyphenyl)acetic acid] | < 1000 nM |
| COc1ccc(CC(=O)O)c(OCc2coc3c(NCC4CC4)cc(-c4cccc(CN)c4)cc23)c1 [Compound 276e, 2-(2-((5-(3-(aminomethyl)phenyl)-7-((cyclopropylmethyl)amino)benzofuran-3-yl)methoxy)-4-methoxyphenyl)acetic acid] | < 1000 nM |

Continued, values first:

| IC50 | Structure (SMILES) |
| --- | --- |
| < 1000 nM | NCc1cccc(-c2ccc3occ(COc4cc(CC5CC5)ccc4CC(=O)O)c3c2)c1 [Compound 153d, 2-(2-((5-(3-(aminomethyl)phenyl)benzofuran-3-yl)methoxy)-4-(cyclopropylmethyl)phenyl)acetic acid] |
| < 1000 nM | NCc1cccc(-c2ccc3oc(C(O)C(F)(F)F)c(COc4ccccc4CC(=O)O)c3c2)c1 (centres unmarked) [Compound 140c, 2-(2-((5-(3-(aminomethyl)phenyl)-2-(2,2,2-trifluoro-1-hydroxyethyl)benzofuran-3-yl)methoxy)phenyl)acetic acid] |
| < 1000 nM | NCc1cc(-c2ccc3occ(COc4ccccc4CC(=O)O)c3c2)ccn1 [Compound 53b, 2-(2-((5-(2-(aminomethyl)pyridin-4-yl)benzofuran-3-yl)methoxy)phenyl)acetic acid] |
| < 1000 nM | CC(O)c1oc2ccc(-c3cccc(CN)c3)cc2c1COc1ccccc1CC(=O)O (centres unmarked) [Compound 125d, 2-(2-((5-(3-(aminomethyl)phenyl)-2-(1-hydroxyethyl)benzofuran-3-yl)methoxy)phenyl)acetic acid] |
| < 1000 nM | NCc1cccc(-c2cccc3cc(COc4ccccc4CC(=O)O)sc23)c1 [Compound 30d, 2-(2-((7-(3-(aminomethyl)phenyl)benzo[b]thiophen-2-yl)methoxy)phenyl)acetic acid] |
| > 10000 nM | NCc1cccc(-c2cc(N)c3oc(COc4ccccc4CC(=O)O)cc3c2)c1 [Compound 235g, 2-(2-((7-amino-5-(3-(aminomethyl)phenyl)benzofuran-2-yl)methoxy)phenyl)acetic acid] |
| < 1000 nM | C[C@@H](N)c1cccc(-c2ccc3occ(COc4ccccc4CC(=O)O)c3c2)c1 [Compound 52c, (R)-2-(2-((5-(3-(1-aminoethyl)phenyl)benzofuran-3-yl)methoxy)phenyl)acetic acid] |
| < 1000 nM | NCc1cccc(-c2cc3c(COc4ccccc4CC(=O)O)coc3c3occc23)c1 [Compound 229g, 2-(2-((5-(3-(aminomethyl)phenyl)benzo[1,2-b:6,5-b′]difuran-3-yl)methoxy)phenyl)acetic acid] |
| < 1000 nM | COc1ccc(CC(=O)O)c(OCc2c(C(=O)O)oc3ccc(-c4cccc(CN)c4)cc23)c1 [Compound 61d, 5-(3-(aminomethyl)phenyl)-3-((2-(carboxymethyl)-5-methoxyphenoxy)methyl)benzofuran-2-carboxylic acid] |
| < 1000 nM | CC(=O)c1oc2ccc(-c3cccc(CN)c3)cc2c1COc1ccccc1CC(=O)O [Compound 141c, 2-(2-((2-acetyl-5-(3-(aminomethyl)phenyl)benzofuran-3-yl)methoxy)phenyl)acetic acid] |
| < 1000 nM | NCc1cccc(-c2ccc3cccc(COc4ccccc4CC(=O)O)c3c2)c1 [Compound 100d, 2-(2-((7-(3-(aminomethyl)phenyl)naphthalen-1-yl)methoxy)phenyl)acetic acid] |
| < 1000 nM | NCc1cccc(-c2ccc3occ(COc4cc(OC(F)(F)F)ccc4CC(=O)O)c3c2)c1 [Compound 110d, 2-(2-((5-(3-(aminomethyl)phenyl)benzofuran-3-yl)methoxy)-4-(trifluoromethoxy)phenyl)acetic acid] |
| < 1000 nM | COc1ccc(CC(=O)O)c(OCc2c(C(O)C(F)(F)F)oc3ccc(-c4cccc(CN)c4)cc23)c1 (centres unmarked) [Compound 216c, 2-(2-((5-(3-(aminomethyl)phenyl)-2-(2,2,2-trifluoro-1-hydroxyethyl)benzofuran-3-yl)methoxy)-4-methoxyphenyl)acetic acid] |
| < 1000 nM | NCc1cccc(-c2ccc3occ(COc4ccc(F)cc4CC(=O)O)c3c2)c1 [Compound 5d, 2-(2-((5-(3-(aminomethyl)phenyl)benzofuran-3-yl)methoxy)-5-fluorophenyl)acetic acid] |
| < 1000 nM | NCc1cccc(-c2ccc3oc(F)c(COc4ccccc4CC(=O)O)c3c2)c1 [Compound 204c, 2-(2-((5-(3-(aminomethyl)phenyl)-2-fluorobenzofuran-3-yl)methoxy)phenyl)acetic acid] |
| > 10000 nM | NCc1cccc(-c2cccc3ccc(COc4ccccc4CC(=O)O)cc23)c1 [Compound 99d, 2-(2-((8-(3-(aminomethyl)phenyl)naphthalen-2-yl)methoxy)phenyl)acetic acid] |
| < 1000 nM | CC(C)c1ccc(CC(=O)O)c(OCc2coc3ccc(-c4cccc(CN)c4)cc23)c1 [Compound 190f, 2-(2-((5-(3-(aminomethyl)phenyl)benzofuran-3-yl)methoxy)-4-isopropylphenyl)acetic acid] |
| < 1000 nM | COc1ccc(CC(=O)O)c(OCc2c(C(C)O)oc3ccc(-c4cccc(CN)c4)cc23)c1 (centres unmarked) [Compound 217c, 2-(2-((5-(3-(aminomethyl)phenyl)-2-(1-hydroxyethyl)benzofuran-3-yl)methoxy)-4-methoxyphenyl)acetic acid] |
| < 1000 nM | NCc1cccc(-c2ccc3oc(C(=O)NC4CC4)c(COc4ccccc4CC(=O)O)c3c2)c1 [Compound 64h, 2-(2-((5-(3-(aminomethyl)phenyl)-2-(cyclopropylcarbamoyl)benzofuran-3-yl)methoxy)phenyl)acetic acid] |
| 1000 to 10000 nM | NCc1cccc(-c2cc3c(COc4ccccc4CC(=O)O)ccc(C4CC4)c3o2)c1 [Compound 291g, 2-(2-((2-(3-(aminomethyl)phenyl)-7-cyclopropylbenzofuran-4-yl)methoxy)phenyl)acetic acid] |
| < 1000 nM | N#Cc1cccc(CC(=O)O)c1OCc1coc2ccc(-c3cccc(CN)c3)cc12 [Compound 115c, 2-(2-((5-(3-(aminomethyl)phenyl)benzofuran-3-yl)methoxy)-3-cyanophenyl)acetic acid] |
